Results reported in patent US20100048498A1, “STABLE NON-DIHYDRATE AZITHROMYCIN ORAL SUSPENSIONS” (priority 2004, published 2010).

Legend:
[1] = Stability of azithromycin form G in suspensions prepared from POS formulations I, II and III; assay type: physicochemical; settings: 18 mls water, 30° C.
Procedure: These POS formulations were created by individually weighing each formulation component into a 60-cc High Density Polyethylene (HDPE) bottle with closure. The resulting formulations were then dry-mixed with a Turbula blender (Glen Mills Inc. Maywood, NJ) for 5 minutes. The powder blends were then constituted with 18 mls of water, shaken for 30 seconds and stored without agitation under controlled temperature conditions.
Upon conclusion of the storage time period the POS samples were filtered using a Buchner funnel in combination with a standard vacuum filtration apparatus. A Millipore prefilter (AP25, 47 mm) was fitted onto the funnel for the collection of suspended solids. Before filtering, the constituted POS sample was poured into a 200 ml volumetric flask and diluted to 200 ml with water. This lowered the viscosity of the sample, facilitating a quick filtration step. With the vacuum on, the diluted POS samples were poured onto the Millipore prefilter. The isolated filtrate remaining on top of the prefilter was then allowed to stand for 2-minutes in order to dry. Vacuum was applied to the filtration apparatus during this drying step. Suspensions containing only bulk drug were transferred directly onto the filter paper upon completion of storage, without the described dilution step during sample preparation. After drying, the collected filtrate was placed into 4 cc Sunbroker vials and analyzed via Solid-State Nuclear Magnetic Resonance (SS-NMR) for quantification of conversion to azithromycin dihydrate (form A).
Approximately 300 mg of sample were tightly packed into a 7 mm ZrO spinner for each sample analyzed. One-dimensional ^13C spectra were collected at ambient pressure using ^1H-^13C cross-polarization magic angle spinning (CPMAS) at 295 K on a Bruker 7 mm BL CPMAS probe positioned into a wide-bore Bruker Avance DSX 500 MHz NMR spectrometer (Bruker BioSpin Corporation; Billerica, Mass.). The samples were spun at 7000 Hz corresponding to the maximum specified spinning speed for the 7 mm spinners. The fast spinning speed minimized the intensities of the spinning side bands. To optimize the signal sensitivity, the cross-polarization contact time was adjusted to 2.3 ms and the decoupling power was set to 65 kHz. Typically, a total of 600 scans were acquired, resulting in approximately a 30 minute acquisition time. The spectra were referenced using an external sample of adamantane with its most upfield resonance set to 29.5 ppm.
Eight pairs of resolved peaks were identified to calibrate ratios of form A in the presence of form G, N, M or F. Integral intensities of all peaks were used as input for the calibration procedure using five different binary mixtures ranging from 3 to 81% of form A with each non-dihydrate form. From this, one non-linear calibration graph was generated for each pair of peaks and each form. For the experimental samples, only the peaks that were totally void from excipient overlap were preferentially integrated. The unknown percentages of form A were then determined from the appropriate calibration graphs. The final result for each sample analyzed was calculated as a weighted average of the determinations from each resolved peak pair.
The stability of form G azithromycin was also evaluated for suspensions prepared from POS formulations I, II and III. The form G bulk drug substance contained <1% by weight of form A prior to formulation and constitution. These suspensions were constituted with 18 mls of water and stored for 1 and 10 days at 30° C.

[2] = Effects of flavoring components upon azithromycin form G conversion in constituted POS; assay type: physicochemical; settings: room temperature, 24-hours
Procedure: Standards of these identified solvent components were then used to investigate the source of the stability problem introduced by these flavorings. The estimated concentration of each solvent in a constituted POS was calculated based on the GC-MS quantification of the specified solvent in the flavorings. Aqueous solutions of each solvent/component were then created at these concentrations and 18 mls of each solvent-solution was used to constitute an unflavored POS formulation I sample using form G. The constituted drug suspensions were stored at room temperature for 24-hours, before being filtered and analyzed by SS-NMR for quantification of azithromycin form change over this interval. POS formulations I and II were constituted with 18 mls of water and stored identically to serve as controls for this experiment.

Structure (SMILES): CC[C@H]1OC(=O)[C@H](C)[C@@H](O[C@H]2C[C@@](C)(OC)[C@@H](O)[C@H](C)O2)[C@H](C)[C@@H](O[C@@H]2O[C@H](C)C[C@H](N(C)C)[C@H]2O)[C@](C)(O)C[C@@H](C)CN(C)[C@H](C)[C@@H](O)[C@]1(C)O [Form G, azithromycin sesquihydrate]
- % Form A ([1]; Formulation I (no flavorings), Day 1): 0%
- % Form A ([1]; Formulation I (no flavorings), Day 10, listed as form G, sesquihydrate): did not exhibit conversion
- % Form A ([1]; Formulation I (no flavorings), Day 10, sesquihydrate): 0%
- % Form A ([1]; Formulation II (Trusil banana), Day 1): 84%
- % Form A ([1]; Formulation II (Trusil banana), Day 10): 91%
- % Form A ([1]; Formulation III (B&C banana), Day 1): 27%
- % Form A ([1]; Formulation III (B&C banana), Day 10): 52%
- % Form A ([2]; Formulation I constituted with 18 mL 0.002 mg/ml ethyl ester propanoic acid): 0%
- % Form A ([2]; Formulation I constituted with 18 mL 0.025 mg/ml 3-methyl-1-butanol): 0%
- % Form A ([2]; Formulation I constituted with 18 mL 0.043 mg/ml isoamyl isovalerate): 13%
- % Form A ([2]; Formulation I constituted with 18 mL 0.144 mg/ml 2-methyl-butyl acetate): 0%
- % Form A ([2]; Formulation I constituted with 18 mL 0.197 mg/ml ethyl acetate): 0%
- % Form A ([2]; Formulation I constituted with 18 mL 0.587 mg/ml benzaldehyde): 0%
- % Form A ([2]; Formulation I constituted with 18 mL 0.785 mg/ml 3-methyl-butyl acetate + 0.562 mg/ml benzaldehyde): 11%
- % Form A ([2]; Formulation I constituted with 18 mL 0.815 mg/ml 3-methyl-butyl acetate): 2%
- % Form A ([2]; Formulation I constituted with 18 mL Water, listed as form G, sesquihydrate): no conversion
- % Form A ([2]; Formulation I constituted with 18 mL Water, sesquihydrate): 0%
- % Form A ([2]; Formulation II constituted with 18 mL Water, listed as form G, sesquihydrate): approximately 71%
- % Form A ([2]; Formulation II constituted with 18 mL Water, sesquihydrate): 71%
